Experimental data from PubChem BioAssay AID179 (DTP/NCI, 2004).
Calls of active or inactive are those of the source.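 Rule for the calls: active = compounds giving half or more protection of infected cells from virus-caused growth loss, again on retest; inactive = the rest.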

Tested on: CEM cells HIV-1 protection, formazan growth assay
Assay: NCI AIDS Antiviral Assay
Details: for IC50: measured here: growth of uninfected CEM cells
Procedure, shortened: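 Protection of CEM cells against HIV-1 was scored from cell growth (soluble formazan) across five concentrations, with parallel uninfected cells. Lack of protection may reflect toxicity.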

| Structure (SMILES) | EC50 [µM] | IC50 [µM] | outcome |
| --- | --- | --- | --- |
| Cc1cc(/C=C2/OC(=O)c3ccccc32)cc(C)c1O | > 100 | > 100 | – |
| Cc1cc(C)c2c(c1)CN1CN2Cc2cc(C)cc(C)c21 | – | – | inactive |
| C/C(O)=C(/C=N/C(N)=S)C(N)=O | – | – | inactive |
| CC(=O)COC(=O)CC(C)=O | – | – | inactive |
| CC(C)(C)C1CCC2(CC1)CCN(N1CCCCCC1)CC2 | > 100 | 91.2 | – |
| Cc1c(O)c(OC2OC(CO)C(O)C(O)C2O)cc2c1C=C[C@@H]1[C@@]2(C)C(=O)C[C@]2(C)[C@@H]([C@@](C)(O)C(=O)CCC(C)(C)O)[C@H](O)C[C@@]12C (some centres not stated) | > 200 | 93.3 | – |
| CCOC(=O)C(=O)CC1=CC=CC2=NC(=O)CCN12 | > 200 | > 200 | – |
| O=c1[nH]c2cc(Cl)ccc2nc1/C(=N\O)C(O)c1ccc(Cl)cc1Cl (configuration not stated) | > 74.1 | > 74.1 | – |
| C[C@@H](NC(=O)c1ccccc1SC(=O)CCCC[n+]1ccccc1)C(N)=O | 0.741 | 105 | – |
| CC(=O)NCCCCNCCCNC(C)=O | > 200 | > 200 | – |
| c1ccc2c(c1)NC(C1OC3CCCN3C1C1Nc3ccccc3S1)S2 (configuration not stated) | > 200 | 107 | – |
| CC1(C)CC[C@]2(C(=O)OC3OC(CO)C(O)C(O)C3O)CCC3(C)C(=CCC4[C@@]5(C)C[C@H](O)[C@H](OC6OC(CO)C(O)C(O)C6O)[C@@](C)(C(=O)O)C5CC[C@]43C)C2C1 (some centres not stated) | > 191 | > 191 | – |
| CC1=C2C(=CC(C)(C)C2O)C(=O)C(C)(O)C12CC2 (configuration not stated) | – | – | inactive |
| CCc1cccc(CC)c1NC(=O)C(=O)Cc1nc2ccccc2o1 | > 537 | > 537 | – |
| CC(C)CCCC(C)[C@H]1CC[C@H]2[C@@H]3CC[C@H]4C[C@@H](CCC=C(c5cc(Cl)c(O)c(C(=O)OCc6ccccc6)c5)c5cc(Cl)c(O)c(C(=O)OCc6ccccc6)c5)CC[C@]4(C)[C@H]3CC[C@]12C (some centres not stated) | – | – | inactive |
| O=C1c2c(F)c(F)c(F)c(F)c2SC2=Nc3cccc4cccc(c34)N12 | > 200 | 1 | – |
| Nc1ccc2c(c1)C(N)c1ccccc1-2 (configuration not stated) | > 200 | 55 | – |
| COc1ccc2c(c1)C(=O)[C@@](Nc1ccc(C=O)cc1)(OC)[C@@](OC)(c1ccc([N+](=O)[O-])cc1)O2 | > 200 | 85.1 | – |
| COc1ccc(-c2nc(N)c(C#N)c3c2CCS(=O)(=O)c2ccc(C)cc2-3)cc1OC | > 200 | 11.2 | – |
| COC(=O)C(CC(C)=O)CS(=O)(=O)CC(=O)C(=O)Nc1cccc([N+](=O)[O-])c1 (configuration not stated) | > 162 | > 162 | – |
| O=Nc1c(-c2ccccc2)[nH]oc1=O | > 200 | 36.3 | – |
| C#CC(C)(C)Oc1ccc2c(=O)c(-c3ccccc3)coc2c1 | > 200 | – | – |

| Structure (SMILES) | EC50 [µM] | IC50 [µM] | outcome |
| --- | --- | --- | --- |
| O=C1c2ccccc2N2OC3C4CCC(C4)C3C12c1ccccc1 (configuration not stated) | > 16.2 | 11.5 | – |
| COC(=O)/C=C\C(C#N)(C#N)N=Cc1ccc(Br)cc1 | > 20 | 1.02 | – |
| COc1cc2c(cc1OC)C(=O)N1CCCC1CS2 (configuration not stated) | > 200 | > 200 | – |
| COc1ccc(CCNC=O)cc1OC | – | – | inactive |
| CN(/N=C/c1ccc(C(=O)O)cc1)C1=NCCCCN1 | > 200 | > 200 | – |
| CC1(O)CC2(O)C=CC3=C(C(=O)c4cccc(O)c4C3=O)C2(O)C(=O)C1O (configuration not stated) | > 676 | 0.339 | – |
| CC(=O)CCn1c(=S)sc2ccccc21 | > 200 | 93.3 | – |
| CSc1nnc(SCc2nn3c(=O)cc(C)nc3s2)s1 | > 200 | > 200 | – |
| NC(N)=NCCCS(=O)(=O)Nc1ccc(Nc2c3ccccc3nc3cc([N+](=O)[O-])ccc23)cc1 | – | – | inactive |
| O=C(O)c1ccc(NC(=O)c2ccccc2[Se][Se]c2ccccc2C(=O)Nc2ccc(C(=O)O)cc2)cc1 | 13.8 | 18.6 | – |
| CCOC(=O)C1(Cc2ccccc2)Cc2cc3c(cc2C1=O)CCC3 (configuration not stated) | > 200 | 14.8 | – |
| CSCCCS/C1=C/CCCCCCCCCC1 | > 200 | > 200 | – |
| COC1C=COC2(C)Oc3c(C)c(O)c4c(O)c(c(C5SCCS5)c(O)c4c3C2=O)NC(=O)/C(C)=C\C=CC(C)C(O)C(C)C(O)C(C)C(OC(C)=O)C1C (configuration not stated) | > 200 | 0.646 | – |
| CC(C)(C)OC(=O)N(CCCCNC(=O)C(F)(F)F)CCCNC(=O)C(F)(F)F | > 200 | > 200 | – |
| CC(C)(C)[Si](C)(C)OC1C(/C=N\O)OC(n2cnc3c(N)ncnc32)C1O[Si](C)(C)C(C)(C)C (configuration not stated) | > 200 | 3.02 | – |
| OCC1=C[C@@H](O)[C@@H]2C=CO[C@@H](OC3OC(CO)C(O)C(O)C3O)[C@H]12 (some centres not stated) | > 724 | > 724 | – |
| COC1OC(C(C)Br)C2OC(C)(C)OC12 (configuration not stated) | > 200 | > 200 | – |
| CNC(=O)N(C(C)(C)C)S(=O)(=O)c1ccc(Cl)cc1 | – | – | inactive |
| COC(=O)C(C)(C)[C@@H]1OC(=O)N(S(=O)(=O)c2c(C)cc(C)cc2C)[C@H]1C(C)C | > 200 | 50.1 | – |
| Clc1c2ncccc2cc2n[nH]nc12 | > 200 | > 100 | – |
| COC(=O)C1(C)OS(=O)(=O)c2ccccc21 (configuration not stated) | > 537 | > 537 | – |
| COc1cc(C(=O)O)c2c(c1C)OC(=O)c1c(C)cc(O)c(C=O)c1O2 | > 83.2 | 36.3 | – |

| Structure (SMILES) | EC50 [µM] | IC50 [µM] | outcome |
| --- | --- | --- | --- |
| CCOC(=O)C1=C(C)NC(C)=C(C(=O)OCC)C1c1cccc([N+](=O)[O-])c1 | – | – | inactive |
| CC[N+]1(C)CCC(O)(/C=C/c2ccc(Cl)c(Cl)c2)C(C(=O)/C=C/c2ccc(Cl)c(Cl)c2)C1 (configuration not stated) | > 200 | 3.8 | – |
| O=C1NC(N2CCCCC2)=N/C1=C\c1ccccc1O | > 200 | 174 | – |
| O=C(CC(=O)n1nc(-c2ccccc2)c(N=Nc2ccccc2Cl)c1-c1ccccc1)Nc1ccc(Cl)cc1 | > 33.9 | > 33.9 | – |
| COc1ccc(CC2=NCCc3cc(OC)c(OC)cc32)cc1Br | > 240 | 3.47 | – |
| Cc1ccnc2c1C(=O)C(=O)C=C2N1CCOCC1 | – | – | inactive |
| Clc1ccccc1/C=C\C1(c2ccccc2)OCCO1 | > 200 | 10.5 | – |
| C=C(C)[C@@H]1CC[C@@H](C)C[C@H]1OC(C)=O | > 200 | > 200 | – |
| CNS(=O)(=O)c1ccccc1C(C)(O)c1ccccc1 (configuration not stated) | > 200 | > 200 | – |
| ClC(=C(c1ccc(OC2CCCCO2)cc1)c1ccc(OC2CCCCO2)cc1)c1ccccc1 (configuration not stated) | > 100 | 87.1 | – |
| CNC(=O)O/N=C(/C)c1cccc([N+](=O)[O-])c1 | > 200 | > 200 | – |
| CN1CN(c2ccccc2)C2(CCN(C3Nc4ccccc4O3)CC2)C1=O (configuration not stated) | > 200 | 74.1 | – |
| CNC(=S)SC1=NS(=O)(=O)c2ccccc2N1 | > 234 | 174 | – |
| COc1cc(OC)cc(C2(C#N)CCN(C)CC2)c1 | > 191 | > 191 | – |
| O=C1c2ccccc2CC12Cc1ccc3c(c1C2)CCC3 (configuration not stated) | > 200 | 89.1 | – |
| Cn1ccc2[nH]c(=O)[nH]c(=S)c21 | > 200 | > 200 | – |
| O=C1Nc2ccccc2NC(=O)C1(O)O | > 200 | > 200 | – |
| C=CCN1c2ccccc2Sc2cnccc21 | > 191 | 33.1 | – |
| CCCCNCc1cc(S(=O)(=O)N2CCCCC2)c2cccnc2c1O | > 47.9 | 8.91 | – |
| O=C(OCCN1CCOCC1)c1cc2ccccc2oc1=O | > 741 | > 741 | – |
